Source: patent US20170369523A1, “TEMPLATE-FIXED BETA-HAIRPIN PEPTIDOMIMETICS THAT ARE LIGANDS FOR G-PROTEIN-COUPLED RECEPTORS (GPCRS) AND ARE MODULATORS OF TRANSCRIPTION FACTORS AND COACTIVATORS” (POLYPHOR AG, priority 2008, published 2017)
Like-named read-outs stand apart in the source and are kept apart here. Square brackets hold non-standard residues; d marks the D form. Peptide text beside a SMILES is read from it. Trp(6-Cl) = N[C@@H](Cc1c[nH]c2cc(Cl)ccc12)C(=O)O

Experiments:
[1] = molecular target: T1, NCoA-1 (Homo sapiens, UniProt Q15788); experiment: Competition fluorescence polarization assay: NCoA-1 binding affinities of peptides (STAT6/NCoA-1 interaction); conditions: competition with FluoSTAT6 (200 nM), NCoA-1 1 μM; Ki calculated from IC50; read-out: Ki [μM], peptide binding to NCoA-1
T1 sequence (Q15788 257-385 limits assumed): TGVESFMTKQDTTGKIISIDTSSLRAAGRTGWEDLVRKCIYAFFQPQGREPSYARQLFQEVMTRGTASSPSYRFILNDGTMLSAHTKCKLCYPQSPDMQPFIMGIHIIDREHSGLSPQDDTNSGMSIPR
Experimental: 2.4. Fluorescence Polarization Assay: NCoA-1 Binding Affinities of Peptides
The mixtures were shaken thoroughly. Fluorescence polarization was measured on a SPECTRAmax M5 spectrometer (Molecular device) following 5-30 min incubation at room temperature. FluoSTAT6 was excited at 490 nm and emission polarization was detected at 525 nm. 40 intensity measurements were collected for each well, 20 at horizontal position of the dynamic polarizer, 20 at parallel position. As the fraction of FluoSTAT6 bound to NCoA-1 is correlated to the fluorescence polarization (FP), after normalization, the fraction of bound FluoSTAT6 (B) was determined, and the KD was calculated according to B=[(1+P/R+KD/R)−((1+P/R+KD/R)^2−4P/R)^0.5]/2, wherein P is the total probe concentration, R the total protein concentration and KD the dissociation constant (M. H. Roehrl, J. Y. Wang, G. Wagner, Biochemistry 2004, 3, 16056).
The mixture was completed by a HEPES buffer solution of NCoA-1 (1 μM final concentration) and processed as described above. STAT6Y (C-terminal tyrosine extended STAT6 794-814 peptide) was used as a positive control. As the total fluorescence intensity of FluoSTAT6 remains similar for all samples, the fraction of peptide bound to NCoA-1 is correlated to the fluorescence polarization.
Following normalization data were fitted with IGORpro Software® (WaveMetrics, Lake Oswego, Oreg., USA) to a sigmoid equation to determine IC50 values. The Ki values were calculated from IC50 values according to the method described by Nikolovska-Coleska et al. Anal. Biochem., 2004, 332, 261).

[2] = molecular target: T2, human UTR2 receptor (Homo sapiens, UniProt Q9UKP6); experiment: Ca2+ assay: UTR2 receptor-agonizing and antagonizing activity (calcium mobilization, Flexstation); type: cell-based
T2 construct: expressed in transfected cells; host or cells: mouse pre-B cell line 300-19
T2 sequence (Q9UKP6 1-389): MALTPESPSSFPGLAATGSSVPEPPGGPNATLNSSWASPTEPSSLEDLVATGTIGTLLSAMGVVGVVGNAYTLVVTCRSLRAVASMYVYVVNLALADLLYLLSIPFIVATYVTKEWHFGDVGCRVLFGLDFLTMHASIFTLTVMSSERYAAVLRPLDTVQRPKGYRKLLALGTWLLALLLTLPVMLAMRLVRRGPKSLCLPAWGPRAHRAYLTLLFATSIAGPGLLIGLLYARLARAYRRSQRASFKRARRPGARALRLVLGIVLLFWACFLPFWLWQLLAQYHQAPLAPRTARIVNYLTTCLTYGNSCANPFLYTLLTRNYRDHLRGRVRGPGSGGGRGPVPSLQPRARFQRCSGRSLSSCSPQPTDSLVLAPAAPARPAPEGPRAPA
Source text: 2.3. Ca^2+− Assay: UTR2 Receptor-Agonizing and Antagonizing Activity of the Peptides
The mouse pre-B cell line 300-19 was stably transfected with the cDNA encoding the human UTR2 receptor (GenBank Acc# NM_018949), and expression was confirmed with a positive calcium signal in response to human urotensin (Sigma Aldrich). Increases in intracellular calcium were monitored using a Flexstation 384 (Molecular Devices, Sunnyvale, Calif.). The cells were batch loaded with the Calcium 4 Assay kit (Molecular Devices) in assay buffer (Hanks Balanced salt solution, HBSS, 20 mM HEPES, pH 7.4, 0.1% BSA) for 1 h at room temperature and labeled cells were dispensed into either black 96 well or 384 well assay plates (Greiner). Calcium mobilization induced by urotensin or test compounds was measured in the Flexstation 384 (excitation, 485 nm; emission, 525 nm) for 70 seconds. Agonist activity was determined by direct addition of ligand or peptides, while antagonists were identified by spiking the cells with test compounds prior to urotensin addition. A dose response curve (compound concentration versus % maximum response for urotensin) was determined for each active agonist and antagonist and was fitted to a four parameter logistic equation using SoftmaxPro 4.8 (Molecular Devices), from which EC50% and IC50% values were calculated.

[3] = Plasma stability, mouse plasma; type: in vitro ADME; conditions: 37° C., sampled up to 240 min
Experimental: (§1) The stability of the peptides in human and mouse plasma was determined by applying the following method: 315 μl/deep well of freshly thawed human plasma (Basler Blutspende-dienst) and mouse plasma (Harlan Sera-Lab, UK), respectively, were spiked with 35 μl/well of compound in PBS (100 μM, triplicate) and incubated at 37° C. At t=0, 15, 30, 60, 120 and 240 min aliquots of 50 μl were transferred to filtration plate wells containing 150 μl/well of acetonitrile. Following shaking for 2 min the occurred suspensions were filtrated by vacuum and finally. 100 μl of each filtrate were transferred to a propylene microtiter plate, and analyzed by LC/MS as follows: Column: Waters, XBridge C18, mobile phases: (A) water+0.1% formic acid and (B) acetonitrile/water, 95/5 (v/v)+0.1% formic acid, gradient: 5%-100% (B) in 2 minutes, electrospray ionization, MRM detection (triple quadrupole). The peak areas were determined and triplicate values were averaged. The stability was expressed in percent of the initial value at t=0. (tx/t0×100). By using the TREND function of EXCEL (Microsoft Office 2003) T1/2 were determined.

[4] = in vitro; type: cell-based
Experimental: (§2) The cytotoxicity of the peptides to HELA cells (Acc57) and COS-7 cells (CRL-1651) was determined using the MTT reduction assay. Briefly, the method was as follows: 7000 HELA cells/well and 4500 COS-7 cells/well were seeded and grown in 96-well microtiter plates for 24 h at 37° C. at 5% CO2. Thereafter, time zero (Tz) was determined by MTT reduction (see below). The supernatant of the remaining wells was discarded, and fresh medium and compounds in serial dilutions (12.5, 25 and 50 μM, triplicates) were pipetted into the wells. After incubation of the cells for 48 h at 37° C. at 5% CO2 the supernatant was discarded again and 100 μL MTT reagent (0.5 mg/mL in RPMI1640 and DMEM, respectively)/well was added. Following incubation at 37° C. for 2 h the media were aspirated and the cells were spiked (100 μl isopropanol/well). The absorbance of the solubilized formazan was measured at 595 nm (OD595peptide). For each concentration averages were calculated from triplicates. The percentage of growth was calculated as follows: (OD595peptide-OD595Tz-OD595Empty well)/(OD595Tz-OD595Empty well)×100%. The GI50 (Growth Inhibition) concentrations were calculated for each peptide by using a trend line function for the concentrations (50, 25, 12.5 and 0 μM), the corresponding percentages and the value 50, (=TREND (C50:C0,%50:%0,50).

[5] = system: human red blood cells (hRBC); type: cell-based; conditions: red cells of human, 1 h
Experimental: The peptides were tested for their hemolytic activity against human red blood cells (hRBC). Fresh hRBC were washed three times with phosphate buffered saline (PBS) and centrifuged for 10 min at 2000×g. Compounds (100 μM) were incubated with 20% hRBC (v/v) for 1 h at 37° C. The final erythrocyte concentration was approximately 0.9×10^9 cells/mL. A value of 0% and 100% cell lyses, respectively, was determined by incubation of hRBC in the presence of PBS alone and 0.1% Triton X-100 in H2O, respectively. The samples were centrifuged, the supernatants were 20-fold diluted in PBS buffer and the optical densities (OD) were measured at 540 nm. The 100% lyses value (OD540H2O) gave an OD540 of approximately 1.3-1.8. Percent hemolysis was calculated as follows: […]

[6] = in vitro; type: cell-based; remark: listed apart in the source
Experimental: as §2

[7] = Plasma stability, human plasma; type: in vitro ADME; conditions: 37° C., sampled up to 240 min
Experimental: as §1

SMILES	Ki [1]	EC50 [2]	Plasmastability mouse pl. T1/2 [3]	GI50 [4]	Hemolysis at 100 μM [%] [5]	GI50 [6]	Plasmastability human pl. T1/2 [7]
CC[C@H](C)[C@@H]1NC(=O)[C@H](CCC(=O)O)NC(=O)[C@H](Cc2c[nH]c3ccccc23)NC(=O)[C@H](C)NC(=O)[C@H](CC(C)C)NC(=O)[C@H](Cc2c[nH]c3ccccc23)NC(=O)[C@H](CCC(=O)O)NC(=O)[C@H](Cc2ccccc2)NC(=O)[C@@H]2CCCN2C(=O)[C@H]2CCCN2C1=O [compound 10] (cyclo(FEWLAWEI[dP]P))	3.1 µM	–	–	–	–	–	–
C[C@@H]1NC(=O)[C@H](CS)NC(=O)[C@H](Cc2c[nH]c3cc(Cl)ccc23)NC(=O)[C@H](CCC(=O)O)NC(=O)[C@H](Cc2ccccc2)NC(=O)[C@@H]2CCCN2C(=O)[C@H]2CCCN2C(=O)[C@H](Cc2ccccc2)NC(=O)[C@H](CCC(=O)O)NC(=O)[C@H](Cc2c[nH]c3ccccc23)NC1=O [compound 15] (cyclo(FE[Trp(6-Cl)]CAWEF[dP]P))	3.1 µM	–	–	–	–	–	–
CC(C)C[C@@H]1NC(=O)[C@@H]2CSSC[C@H](NC(=O)[C@H](CC(=O)O)NC(=O)[C@@H]3CCCN3C(=O)[C@@H](CCC(=O)O)NC1=O)C(=O)N[C@@H](Cc1ccccc1)C(=O)N[C@@H](Cc1c[nH]c3ccccc13)C(=O)N[C@@H](CCCCN)C(=O)N[C@@H](Cc1ccc(O)cc1)C(=O)N2 [compound 30]	–	< 0.002 µM	4 h	> 50 µM	0%	> 50 µM	4 h
CC(C)[C@@H]1NC(=O)[C@@H]2CSSC[C@H](NC(=O)[C@H](CC(=O)O)NC(=O)[C@@H]3CCCN3C(=O)[C@H]3CCCN3C1=O)C(=O)N[C@@H](Cc1ccccc1)C(=O)N[C@@H](Cc1c[nH]c3ccccc13)C(=O)N[C@@H](CCCCN)C(=O)N[C@@H](Cc1ccc(O)cc1)C(=O)N2 [compound 31]	–	< 0.002 µM	4 h	> 50 µM	0%	> 50 µM	4 h
